Here are results for three molecules from patent publication US9382572B2, “Methods of determining biocide efficacy or mechanism of action using flow cytometry” (Ecolab USA Inc., priority 2013, dated 2016).

Structures are written as SMILES.

Test [1] deals with E. coli growth in LB media. The test is described as follows: Synergy between DDAC and TTPC by flow cytometry, Example 3. The conditions noted are these: 40 ppm of biocide, ratio DDAC:TTPC. (In general: In flow cytometry, cells or beads pass a laser one at a time.)
Test [2] relates to Cultures of E. coli. The test is described as follows: Viability measured by flow cytometry, Example 6. It counts as cell-based. The note with it: Escherichia coli, 4 hours at 37° C., n=3, ± 1 standard deviation, read-out: reduced viable bacteria (flow cytometry). Here is the method: (§1) Cultures of E. coli were left untreated or treated with tributyltetradecyl phosphonium chloride (TTPC) at 75 ppm, 150 ppm, or 300 ppm. Flow cytometry samples were prepared as described in Example 1 and triplicate culture bottles were prepared of the treated E. coli and untreated E. coli after 4 hours of incubation at 37° C. […] Viability was measured by flow cytometry and serial dilution in LB media. […] Error bars indicate 1 standard deviation. An asterisk indicates a statistically significant difference (p<0.05) and two asterisk indicates a p-value <0.01.

Test [3] concerns Cultures of E. coli. The test is described as follows: Viability by standard culture method (serial dilution in LB media), Example 6. It counts as cell-based. The conditions noted are these: Escherichia coli, 4 hours at 37° C., n=3, ± 1 standard deviation, read-out: reduced viable bacteria (serial dilution culturing). Here is the method:
as §1

The subject of a further test is E. coli in LB media. The test is described as follows: Effect of citric acid treatment on flow cytometry viable bacteria, Examples 8-9. It counts as cell-based, Escherichia coli. The conditions noted are these: concentration less than or equal to 20 mM.

With `CCCCCCCCCC[N+](C)(C)CCCCCCCCCC.[Cl-]` [10:0, didecyldimethylammonium chloride], in test [1], the “Depolarized and Membrane-damaged/mL” value came out at 555000 mL⁻¹; the Depolarized/mL worked out at 1.45e+06 mL⁻¹; the Membrane-damaged/mL is 349 mL⁻¹; the Viable/mL came to 5390 mL⁻¹.

`CCCCCCCCCCCCCC[P+](CCCC)(CCCC)CCCC.[Cl-]` [TTPC, tributyl tetradecyl phosphonium chloride]: the inhibition at 75 ppm with Cultures of E. coli [2] (75 ppm) was determined as 97.9%. The inhibition at 150 ppm with Cultures of E. coli [2] (150 ppm) came out at 99.7%. Further, in the test with Cultures of E. coli [2] (300 ppm), the inhibition at 300 ppm came out at 100%. Besides, the inhibition at 75 ppm with Cultures of E. coli [3] (75 ppm) turned out to be 99%. Also, the inhibition at 150 ppm with Cultures of E. coli [3] (150 ppm) is 100%. Also, the inhibition at 300 ppm in the test on Cultures of E. coli [3] (300 ppm) turned out to be 100%. Further, in test [1], the “Depolarized and Membrane-damaged/mL” value came out at 1.67e+06 mL⁻¹; the Depolarized/mL is 2.54e+06 mL⁻¹; the Membrane-damaged/mL worked out at 537 mL⁻¹; the Viable/mL amounted to 6330 mL⁻¹.

`O=C(O)CC(O)(CC(=O)O)C(=O)O` [citric acid]: in the test on E. coli in LB media, the “effect on cell viability when analyzed by flow cytometry” value was “does not affect the cell viability”.
